Data from patent publication US5965569A, “Polycyclic aminopyridine compounds which are acetylcholinesterase inhibitors, process for preparing them and their use” (priority 1995, dated 1999).
Counter-ions that a name gives are not always drawn. Like-named read-outs stand apart in the source and are kept apart here.

Experiments:
acetylcholinesterase = acetylcholinesterase (Homo sapiens, UniProt P22303); assay: Acetylcholinesterase-inhibiting capacity, colorimetric method of Ellman et al.; type: biochemical
acetylcholinesterase, sequence (P22303 32-614): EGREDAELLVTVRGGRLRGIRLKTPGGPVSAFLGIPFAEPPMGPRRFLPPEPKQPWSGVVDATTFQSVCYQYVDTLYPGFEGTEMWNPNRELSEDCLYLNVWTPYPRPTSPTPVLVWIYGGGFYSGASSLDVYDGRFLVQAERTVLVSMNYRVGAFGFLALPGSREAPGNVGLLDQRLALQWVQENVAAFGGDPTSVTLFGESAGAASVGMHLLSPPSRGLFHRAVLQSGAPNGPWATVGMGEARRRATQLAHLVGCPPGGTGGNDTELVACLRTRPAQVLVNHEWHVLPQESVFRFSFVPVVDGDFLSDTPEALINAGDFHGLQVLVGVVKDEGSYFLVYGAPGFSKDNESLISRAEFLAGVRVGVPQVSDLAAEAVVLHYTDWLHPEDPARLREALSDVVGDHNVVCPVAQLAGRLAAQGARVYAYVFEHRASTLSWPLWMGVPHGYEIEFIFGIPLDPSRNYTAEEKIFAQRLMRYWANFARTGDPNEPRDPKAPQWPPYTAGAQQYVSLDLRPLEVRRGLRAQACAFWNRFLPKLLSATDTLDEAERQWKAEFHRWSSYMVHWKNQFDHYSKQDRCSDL

[1] = administered intravenously in combination with lecithin, cited from earlier work
[2] = Table 8, with respect to tacrine under the same conditions, hydrochloride
[3] = Table 8, with respect to tacrine under the same conditions

Row | Structure (SMILES) | IC50 tacrine/IC50 compound (ratio of the IC50 of tacrine to the IC50 of each compound) (acetylcholinesterase; [3]) | IC50 tacrine/IC50 compound (ratio of the IC50 of tacrine to the IC50 of each compound) (acetylcholinesterase) | also measured
1 | CCC1=CC2Cc3nc4ccccc4c(N)c3C(C1)C2 (single isomer, unassigned; (-)) [(-) --Icw, (-)-12-Amino-6,7,10,11-tetrahydro-9-ethyl-7,11-methanocycloocteno[b]quinoline hydrochloride] | – | – | IC50 tacrine/IC50 compound (ratio of the IC50 of tacrine to the IC50 of each compound) (acetylcholinesterase; [2]): 4.80; inhibitory activity against the enzyme acetylcholinesterase (in words) (acetylcholinesterase; qualitative comparison with tacrine or with enantiomer): much more active than their enantiomers
2 | CCC1=CC2Cc3nc4ccccc4c(N)c3C(C1)C2 (racemic) [Icw, 12-Amino-9-ethyl-6,7,10,11-tetrahydro-7,11-methanocycloocta[b]quinoline] | 3.38 | – | –
3 | Nc1c2c(nc3ccccc13)CC1C=C(c3ccccc3)CC2C1 (stereo not shown) [Ifw, 12-Amino-9-phenyl-6,7,10,11-tetrahydro-7,11-methanocycloocta[b]quinoline] | 1.03 | – | –
4 | CC1=CC2Cc3nc4cccc(F)c4c(N)c3C(C1)C2 (stereo not shown) [Ibx, 12-Amino-1-fluoro-6,7,10,11-tetrahydro-9-methyl-7,11-methanocycloocta[b]quinoline] | 4.14 | – | –
5 | CC1=CC2Cc3nc4ccccc4c(N)c3C(C1)C2 (racemic) [Ibw, 12-Amino-6,7,10,11-tetrahydro-9-methyl-7,11-methanocycloocta[b]quinoline] | – | 2.00 | –
6 | CC1=CC2Cc3nc4ccccc4c(N)c3C(C1)C2 (stereo not drawn) [(+) --Ibw] | – | 0.40 | –
7 | Nc1c2c(nc3ccccc13)CCCC2 [tacrine, 9-amino-1,2,3,4-tetrahydroacridine] | – | – | usefulness in the treatment of Alzheimer's disease (in words) [1]: proves useful in the treatment of Alzheimer's disease; toxicity (in words) ([1]; drawback of tacrine): high toxicity
8 | CC1=CC2Cc3nc4cc(F)ccc4c(N)c3C(C1)C2 (stereo not shown) [Iby, 12-Amino-3-fluoro-6,7,10,11-tetrahydro-9-methyl-7,11-methanocycloocta[b]quinoline] | 15.28 | – | –
9 | CC1=CC2Cc3nc4ccccc4c(N)c3C(C1)C2 (stereo not drawn) [(-) --Ibw] | – | 2.80 | inhibitory activity against the enzyme acetylcholinesterase (in words) (acetylcholinesterase): much more active than their enantiomers
10 | CCC1=CC2Cc3nc4ccccc4c(N)c3C(C1)C2 (single isomer, unassigned; (+)) [(+) --Icw, (+)-12-Amino-6,7,10,11-tetrahydro-9-ethyl-7,11-methanocycloocteno[b]quinoline hydrochloride] | – | – | IC50 tacrine/IC50 compound (ratio of the IC50 of tacrine to the IC50 of each compound) (acetylcholinesterase; [2]): 0.15
